Values joined by “and” are separate entries in the source; they are usually repeats but may differ in a detail not shown here. Equal entries are not always repeated. Where two headings read alike, the source gives them in different places.
Assays:
[1] = target: T1, EphB2-EphrinB2 (Mus musculus, UniProt P54763); assay: Octet, immobilized mouse EphB2 binding to mouse EphrinB2; conditions: for IC50: immobilized mouse EphB2, 50 nM soluble mouse EphrinB2
T1 sequence (P54763 19-543 limits assumed): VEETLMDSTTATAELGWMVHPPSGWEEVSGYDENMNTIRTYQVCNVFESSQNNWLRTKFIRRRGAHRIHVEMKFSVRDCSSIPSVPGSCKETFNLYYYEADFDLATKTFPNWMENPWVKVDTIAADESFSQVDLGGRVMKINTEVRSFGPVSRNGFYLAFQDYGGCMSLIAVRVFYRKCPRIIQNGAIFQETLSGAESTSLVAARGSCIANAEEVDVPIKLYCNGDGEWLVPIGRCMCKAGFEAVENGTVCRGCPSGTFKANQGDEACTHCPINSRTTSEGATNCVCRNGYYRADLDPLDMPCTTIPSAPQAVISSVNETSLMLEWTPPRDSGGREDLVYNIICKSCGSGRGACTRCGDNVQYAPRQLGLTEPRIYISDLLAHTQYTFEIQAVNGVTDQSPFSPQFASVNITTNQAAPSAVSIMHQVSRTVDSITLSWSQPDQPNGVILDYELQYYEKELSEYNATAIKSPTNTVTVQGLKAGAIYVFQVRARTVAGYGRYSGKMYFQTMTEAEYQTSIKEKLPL
Description: (§1) The novel compound A20-I is a halogen replacement that changes the 7-bromine in A20 for iodine and had enhanced tetramerization inhibitor activity (FIGS. 38A-38D). This is evident when comparing results of A20-I and A20 salt compounds on the interaction of immobilized mouse EphB2 ectodomain binding to soluble mouse EphrinB2 ectodomain (FIG. 38A and FIG. 38B) or soluble human EphrinA5 (FIG. 38C). […] During these interactions of immobilized EphB ectodomains binding to soluble EphrinB2, the tetramer is much more surmountable by addition of an active compound than for the reverse experiment where EphrinB2 is immobilized and EphB2 is the soluble component in the assay (see FIG. 11, FIG. 17, and FIG. 25A-FIG. 25C). It is believed that the more resistant unsurmountable tetramer formed by immobilized EphrinB2 binding to soluble EphB ectodomains provides for the most rigorous test for determining IC50 values and thus utilizing this EphrinB2-EphB2 assay for analysis of all compounds, provide uniformity in observed results. The results described herein with A20-I and using the human EphrinB2-EphB2 interaction indicates replacements can be made in the 7-bromine in A20 that lead to enhanced tetramerization inhibitor activity.

[2] = target: T2, EphB2-EphrinA5 (Mus musculus, UniProt P54763); assay: Octet, immobilized EphB2 binding to human EphrinA5; conditions: for IC50: mEphB2-hEphrinA5, immobilized mouse EphB2, 50 nM soluble human EphrinA5
T2 sequence (P54763 19-543 limits assumed): T1 sequence (P54763 19-543 limits assumed)
Method: The Octet system was used to probe the interactions of epitope-tagged human A class proteins, focusing on immobilized EphA3 binding to two of its cognate ligands, EphrinA1 and EphrinA5, as well as EphB2 binding to EphrinA5 (FIG. 27). […] Focusing on the dimerization-driven EphA3-EA5 interaction first (green sensorgram trace), which mimics what is disclosed above for EphB4-EB2, the initial binding of soluble EphrinA5 to the immobilized EphA3 is very fast and strong with a long and steep 84° slope of response that then quickly bends around 35 sec into the association step to form a more gradual tetramerization accumulation slope. […] However, again like the EphB4-EB2 interaction, once placed into dissociation, a significant fraction of the bound EA5 protein melts quickly and the off phase continues downward with a slow gradual decline in bound protein. Although the dissociation was for only 500 sec, the continued downward slope of the response indicates most of the bound EA5 protein would eventually melt off of the immobilized EphA3 protein. This is referred to as a classic dimerization-driven interaction, fast and strong initial binding in the association step but with most of the bound protein coming off in the dissociation due to lack of formation of stable tetramers. EphA3 interacts with EphrinA1 with totally different kinetics/dynamics (orange sensorgram trace). Here, the initial high 84° dimerization slope phase is extremely brief (5 sec) with the binding quickly snapping into a linear tetramerization accumulation phase with a 25° slope, and that once placed into dissociation step almost no bound protein melts, just the small amount that would represent dimer interactions falling off in the first few seconds after being placed into dissociation. […] EphB2 interacting with EA5 is similar to the EphA3-EA1 interaction, in that the association step is characterized by a very brief (5 sec) high 84° slope phase that quickly bends into a more gradual tetramer accumulation phase (blue sensorgram trace). […] The strong initial off phase of the EphB2-EA5 complexes in the dissociation represents both the melting of weak dimers and of the relatively weaker affinity tetramers formed by the cross A/B class EphB2-EA5 molecules. […]
as §1

[3] = association, absolute, read-out: Absolute Association IC50
[4] = association, relative, read-out: Relative Association IC50
[5] = dissociation, absolute, read-out: Absolute Dissociation IC50
[6] = dissociation, relative, read-out: Relative Dissociation IC50
[7] = Absolute Association IC50, mEphB2-mEphrinB2, association, absolute
[8] = Absolute Dissociation IC50, mEphB2-mEphrinB2, dissociation, absolute
[9] = Relative Association IC50, mEphB2-mEphrinB2, association, relative
[10] = Relative Dissociation IC50, mEphB2-mEphrinB2, dissociation, relative

SMILES	elimination of tetramer ([1]; 100 μM)	IC50 [2, 3]	IC50 [2, 4]	IC50 [2, 5]	IC50 [2, 6]	IC50 [1, 7]	IC50 [1, 8]	IC50 [1, 9]	IC50 [1, 10]	formation of stable tetramers ([2]; 1 μM)
Oc1c(I)cc(CN2CCOCC2)c2cccnc12 [Compound 7, 7-iodo-5-(morpholinomethyl)quinolin-8-ol]	eliminated all tetramer species	–	–	–	–	–	–	–	–	–
O=S1(=O)CCN(Cc2ccc(O)c3ncccc23)CC1 [Compound 15, 4-((8-hydroxyquinolin-1-ium-5-yl)methyl)thiomorpholin-4-ium 1,1-dioxide chloride]	–	7040 nM	> 1000 nM	8400 nM	> 1000 nM	100000 nM	6530 nM	6310 nM	990 nM	–
Oc1c(Br)cc(CN2CCOCC2)c2cccnc12 [Compound 5, 7-bromo-5-(morpholinomethyl)quinolin-8-ol]	–	–	–	–	–	–	–	–	–	completely inhibited the formation of stable tetramers
Oc1c(Cl)cc(CN2CCOCC2)c2cccnc12 [Compound 4, 4-((7-chloro-8-hydroxyquinolin-1-ium-5-yl)methyl)morpholin-4-ium chloride]	–	< 1000 nM	< 1000 nM	< 1000 nM	< 1000 nM	4290 nM	900 nM	940 nM	630 nM	–
Oc1c(I)cc(CN2CCOCC2)c2cccnc12 [Compound 8, 4-((8-hydroxy-7-iodoquinolin-1-ium-5-yl)methyl)morpholin-4-ium chloride]	–	420 nM and 1590 nM	220 nM and 830 nM	90 nM	80 nM	690 nM and 1300 nM	470 nM and 510 nM	300 nM and 410 nM	250 nM and 510 nM	–
Oc1c(Br)cc(CN2CCOCC2)c2cccnc12 [Compound 6, 4-((7-bromo-8-hydroxyquinolin-1-ium-5-yl)methyl)morpholin-4-ium chloride]	–	570 nM	–	< 1000 nM	–	2920 nM	680 nM	1040 nM	500 nM	–
O=[N+]([O-])c1cc(CN2CCOCC2)c2cccnc2c1O [Compound 10, 4-((8-hydroxy-7-nitroquinolin-1-ium-5-yl)methyl)morpholin-4-ium chloride]	–	4240 nM	2900 nM	100000 nM	100000 nM	< 10000 nM	< 10000 nM	< 10000 nM	< 10000 nM	–
Oc1ccc(CN2CCN(Cc3ccc(C(F)(F)F)cc3)CC2)c2cccnc12 [Compound 48, 5-((4-(4-(trifluoromethyl)benzyl)piperazin-1-yl)methyl)quinolin-8-ol]	–	8240 nM	> 1000 nM	1000 nM	1000 nM	100000 nM	8120 nM	12100 nM	2120 nM	–
Oc1ccc(CN2CCOCC2)c2cccnc12 [Compound 1, 5-(morpholinomethyl)quinolin-8-ol]	–	–	–	–	–	100000 nM	9900 nM	10900 nM	900 nM	–

Reference: patent US20260374739A1, “SMALL MOLECULAR WEIGHT CHEMICAL COMPOUND TO ANTAGONIZE EPH-EPHRIN TETRAMERIZATION AND INHIBIT BIDIRECTIONAL SIGNALING” (THE BOARD OF REGENTS OF THE UNIVERSITY OF TEXAS SYSTEM, priority 2022, published 2026)
